The results in this text go back to PMC6913630, “Novel benzofuran-based sulphonamides as selective carbonic anhydrases IX and XII inhibitors: synthesis and in vitro biological evaluation” (Journal of Enzyme Inhibition and Medicinal Chemistry, 2019).

Test in all cases: stopped-flow CO2 hydration
Common to all, as to format: biochemical

One experiment concerns the target T1, hCA II (Homo sapiens, UniProt P00918).
T1 construct: gene CA2; not described; cytosolic isoform
An excerpt: stopped-flow CO2 hydration on hCA II

Another experiment concerns the target T2, hCA I (Homo sapiens, UniProt P00915).
T2 construct: gene CA1; not described; cytosolic isoform
An excerpt: stopped-flow CO2 hydration on hCA I

The target of the next experiment is T3, hCA IX (Homo sapiens, UniProt Q16790).
T3 construct: gene CA9; not described; transmembrane tumour-associated isoform
An excerpt:
stopped-flow CO2 hydration on hCA IX

In another experiment the target is T4, hCA XII (Homo sapiens, UniProt O43570).
T4 construct: gene CA12; not described; transmembrane tumour-associated isoform
T4 sequence (O43570 25-354): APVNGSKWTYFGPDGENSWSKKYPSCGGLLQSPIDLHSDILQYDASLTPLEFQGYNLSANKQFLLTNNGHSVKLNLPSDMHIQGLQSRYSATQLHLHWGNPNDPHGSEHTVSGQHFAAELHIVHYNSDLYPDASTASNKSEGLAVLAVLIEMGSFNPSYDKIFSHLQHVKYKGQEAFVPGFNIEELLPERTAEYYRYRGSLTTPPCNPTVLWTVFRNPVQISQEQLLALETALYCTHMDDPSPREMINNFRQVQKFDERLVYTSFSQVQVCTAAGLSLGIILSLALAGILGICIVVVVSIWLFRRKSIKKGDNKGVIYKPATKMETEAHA
The source says:
stopped-flow CO2 hydration on hCA XII

One may read the Ki as a dissociation constant, usually derived from enzyme kinetics or from competition with a known ligand. High values mean a looser hold on the target, low ones a stronger hold on the target.

T2 sequence (P00915 2-261): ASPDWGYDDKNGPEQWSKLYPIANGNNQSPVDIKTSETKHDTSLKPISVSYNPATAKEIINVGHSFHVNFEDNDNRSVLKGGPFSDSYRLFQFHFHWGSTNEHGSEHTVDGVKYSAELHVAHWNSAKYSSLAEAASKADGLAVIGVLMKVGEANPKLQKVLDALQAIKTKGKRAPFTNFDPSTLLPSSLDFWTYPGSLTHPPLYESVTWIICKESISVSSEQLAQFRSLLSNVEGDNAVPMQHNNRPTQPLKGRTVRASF

Regarding `CC(=NNC(=O)c1ccc(S(N)(=O)=O)cc1)c1cc2ccccc2o1` [5a, 4–(2-(1-(Benzofuran-2-yl)ethylidene)hydrazine-1-carbonyl)benzenesulfonamide], the Ki on hCA II came out at 33.6 nM; on hCA I, 37.4 nM; on hCA IX, 60.4 nM; at hCA XII, 10.1 nM.
For `Cc1ccc(S(=O)(=O)CC(=NNc2ccc(S(N)(=O)=O)cc2)c2cc3ccccc3o2)cc1` [9a, 4–(2-(1-(Benzofuran-2-yl)-2-tosylethylidene)hydrazineyl)benzenesulfonamide], in that order: 644 nM, 1290 nM, 32.8 nM and 49.7 nM.
Take `CC(=NNc1ccc(S(N)(=O)=O)cc1)c1cc2cc(Br)ccc2o1` [4b, 4–(2-(1–(5-Bromobenzofuran-2-yl)ethylidene)hydrazineyl)benzenesulfonamide]: the Ki stood at 73.5 nM at hCA II, 92.7 nM on hCA I, 48.4 nM on hCA IX and 38.8 nM at hCA XII.
Consider `CC(=NNC(=O)c1ccc(S(N)(=O)=O)cc1)c1cc2cc(Br)ccc2o1` [5b, 4–(2-(1–(5-Bromobenzofuran-2-yl)ethylidene)hydrazine-1-carbonyl)benzenesulfonamide], for which the Ki is 44.2 nM on hCA II, 63.9 nM at hCA I, 27.7 nM at hCA IX and 32.5 nM at hCA XII.
`NS(=O)(=O)c1ccc(NN=C(CS(=O)(=O)c2ccccc2)c2cc3cc(Br)ccc3o2)cc1` [9b, 4–(2-(1–(5-Bromobenzofuran-2-yl)-2-(phenylsulfonyl)ethylidene)hydrazineyl)benzenesulfonamide]: the Ki worked out at 888 nM on hCA II, 2160 nM at hCA I, 44.6 nM on hCA IX and 33.4 nM at hCA XII.
Turning to `Cc1ccc(S(=O)(=O)CC(=NNC(=O)c2ccc(S(N)(=O)=O)cc2)c2cc3ccccc3o2)cc1` [10b, 4–(2-(1-(Benzofuran-2-yl)-2-tosylethylidene)hydrazine-1-carbonyl)benzenesulfonamide], the Ki is 229 nM on hCA II, 3920 nM on hCA I, 51.1 nM at hCA IX and 38.9 nM on hCA XII.
For `CC(=NNc1ccc(S(N)(=O)=O)cc1)c1cc2ccccc2o1` [4a, 4–(2-(1-(Benzofuran-2-yl)ethylidene)hydrazineyl)benzenesulfonamide], in that order: 12.3 nM, 163 nM, 33.3 nM and 26.9 nM.
Take `Cc1ccc(S(=O)(=O)CC(=NNc2ccc(S(N)(=O)=O)cc2)c2cc3cc(Br)ccc3o2)cc1` [9c, 4–(2-(1–(5-Bromobenzofuran-2-yl)-2-tosylethylidene)hydrazineyl)benzenesulfonamide]: the Ki turned out to be 571 nM at hCA II, 2500 nM at hCA I, 10 nM on hCA IX and 16.7 nM at hCA XII.
For `NS(=O)(=O)c1ccc(C(=O)NN=C(CS(=O)(=O)c2ccccc2)c2cc3ccccc3o2)cc1` [10a, 4–(2-(1-(Benzofuran-2-yl)-2-(phenylsulfonyl)ethylidene)hydrazine-1-carbonyl)benzenesulfonamide], in that order: 354 nM, 4620 nM, 76.6 nM and 71.8 nM.
For `NS(=O)(=O)c1ccc(C(=O)NN=C(CS(=O)(=O)c2ccccc2)c2cc3cc(Br)ccc3o2)cc1` [10c, 4–(2-(1–(5-Bromobenzofuran-2-yl)-2-(phenylsulfonyl)ethylidene)hydrazine-1-carbonyl)benzenesulfonamide], the inhibition constant Ki amounted to 439 nM at hCA II, 1820 nM at hCA I, 85.4 nM on hCA IX and 66.8 nM on hCA XII.
Turning to `Cc1ccc(S(=O)(=O)CC(=NNC(=O)c2ccc(S(N)(=O)=O)cc2)c2cc3cc(Br)ccc3o2)cc1` [10d, 4–(2-(1–(5-Bromobenzofuran-2-yl)-2-tosylethylidene)hydrazine-1-carbonyl)benzenesulfonamide], the Ki was determined as 727 nM at hCA II, 828 nM on hCA I, 97.5 nM on hCA IX and 27.5 nM at hCA XII.
